# Measurements from patent publication US10906938B2, “Cell epitopes and combination of cell epitopes for use in the immunotherapy of myeloma and other cancers” (Immatics Biotechnologies GmbH, priority 2015, dated 2021).
# How the values were obtained:
# Format in all cases: cell-based, human
# [1] = tested on: PBMC obtained from MM patients; test: 12-day recall IFNγ ELISPOT with PBMC of MM patients; details: for specific T-cell recognition, MM patients positive/tested / specific T-cell recognition, share of MM patients: 12-day recall IFNγ ELISPOT, PBMC of MM patients, HLA class I peptide
# Description: PBMC from MM patients and HVs were cultured as described previously. In brief, for CD8^+ T-cell stimulation, PBMC were pulsed with 1 μg/ml per peptide and cultured for 12 days adding IL-4 and IL-7 on day 0 and 1 as well as IL-2 on day 3, 5, 7 and 9. HLA-A*02 (KLFEKVKEV) (SEQ ID NO. 231) and B*07 (KPSEKIQVL) (SEQ ID NO. 232) restricted control peptides derived from benign tissues (HV-exclusive HLA ligands) served as negative control. Peptide-stimulated PBMC were analyzed by ELISPOT assays on day 12. For CD4^+ T-cell stimulation, culture was performed as described for CD8^+ T cells except for 2 modifications: pulsing was carried out with 10 μg/ml of HLA class II peptide and no IL-4 or IL-7 was added.
# IFNγ ELISPOT assays were carried out as described previously. In brief, 96-well nitrocellulose plates (Millipore) were coated with […] IFNγ mAb (Mabtech) and incubated over night at 4° C. Plates were blocked with 10% human serum for 2 h at 37° C. 2.5×10^5 cells/well of pre-stimulated PBMC were pulsed with 1 μg/ml (HLA class I) or 2.5 μg/ml (HLA class II) peptide and incubated for 24-26 h. Readout was performed according to manufacturer's instructions. PHA was used as positive control. HLA-A*02 (KLFEKVKEV) (SEQ ID NO. 231) and B*07 (KPSEKIQVL) (SEQ ID NO. 232) restricted control peptides derived from benign tissues (HV-exclusive HLA ligands) served as negative control. Spots were counted using an ImmunoSpot S5 analyzer (CTL). T cell responses were considered to be positive when >10 spots/well were counted and the mean spot count per well was at least 3-fold higher than the mean number of spots in the negative control wells (according to the cancer immunoguiding program (CIP) guidelines).
# [2] = tested on: CD8+ T cells from one healthy individual; test: aAPC priming and tetramer staining, CD8+ T cells of a healthy individual
# Description: (§1) For the generation of artificial antigen presenting cells (aAPC), 4×10^6 streptavidincoated polystyrene particles (Bangs Laboratories) per ml were resuspended in PBE (PBS/BSA/ETDA, Gibco/Sigma Aldrich/Lonza) containing 200 pM biotinylated MHCpeptide monomer and 20 nM anti-human biotinylated CD28 antibody and incubated at room temperature for 30 min. After washing, the aAPCs were stored at 4° C. prior to use. CD8^+ T cells from MM patients and HV were enriched by positive selection using magnetic cell sorting (Miltenyi Biotec). Stimulations were initiated in 96-well plates with 1×10^6 T cells plus 2×10^5 aAPCs in 200 μl T-cell medium complemented with 5 ng/ml human IL-12 (PromoKine). […] IL-2 (R&D Systems) were added on day 5. aAPC stimulation was repeated on day 10, for a total of 3 cycles.
# (§2) The frequency of peptide-specific CD8^+ T cells was determined on a FACS Canto II cytometer (BD Bioscience) by staining with anti-CD8 (Biolegend) and HLA:peptidetetramer-PE as described previously. Staining with tetramers containing the CMV pp65 A*02 peptide NLVPMVATV (SEQ ID No. 236) served as positive control, tetramers containing irrelevant, non-primed A*02 restricted control peptides as negative controls. […]
# [3] = tested on: CD8+ T cells from one MM patient; test: aAPC priming and tetramer staining, CD8+ T cells of an MM patient; details: T cells from an MM patient without previous T-cell reactivity for P2
# Description: as §1, §2
# MM.1S cells = test: HLA class I ligand presentation upon carfilzomib treatment on MM.1S cells (LC-MS/MS); design: key to modulation upon carfilzomib-treatment 24 #1 / modulation upon carfilzomib-treatment 24 #2 / modulation upon carfilzomib-treatment 24 #3 / modulation upon carfilzomib-treatment 48 #1 / modulation upon carfilzomib-treatment 48 #2 / modulation upon carfilzomib-treatment 48 #3: −1: significantly down-modulated; 0: not signifcant/not detected; 1: significantly up-modulated; details: MM.1S cells, vs mock-treated controls; for modulation upon carfilzomib-treatment 24 #1 / modulation upon carfilzomib-treatment 24 #2 / modulation upon carfilzomib-treatment 24 #3: 24 h after carfilzomib treatment (100 nM, 1 h); for modulation upon carfilzomib-treatment 24 #1 / modulation upon carfilzomib-treatment 48 #1: biological replicate #1; for modulation upon carfilzomib-treatment 24 #2 / modulation upon carfilzomib-treatment 48 #2: biological replicate #2; for modulation upon carfilzomib-treatment 24 #3 / modulation upon carfilzomib-treatment 48 #3: biological replicate #3; for modulation upon carfilzomib-treatment 48 #1 / modulation upon carfilzomib-treatment 48 #2 / modulation upon carfilzomib-treatment 48 #3: 48 h after carfilzomib treatment (100 nM, 1 h)
# Description: HLA class I and II molecules were isolated using standard immunoaffinity purification as described using the pan-HLA class I specific mAb W6/32, the pan-HLA class II specific mAb T039 and the HLA-DR specific mAB L243 (produced in house).
# HLA ligand extracts were analyzed in 5 technical replicates as described previously. In brief, peptide samples were separated by nanoflow HPLC (RSLCnano, ThermoFisher) using a 50 μm×25 cm PepMap RSLC column (Thermo Fisher) and a gradient ranging from 2.4 to 32.0% acetonitrile over the course of 90 min. Eluting peptides were analyzed in an online coupled LTQ Orbitrap XL mass spectrometer (Thermo Fisher) using a top 5 CID (collision induced dissociation) fragmentation method.
# Data processing was performed as described previously. In brief, the Mascot search engine (Mascot 2.2.04; Matrix Science, London, UK) was implemented to search the human proteome as comprised in the Swiss-Prot database (20,279 reviewed protein sequences, September 2013) without enzymatic restriction. Potential mutated HLA ligands were searched implementing a database containing the human proteome concatenated with proteins containing single amino acid variants (SAVs) listed in the COSMIC database (http://cancer.sanger.ac.uk/cosmic/). Only recurrent SAVs described in 2 or more samples of hematological origin were included. Oxidized methionine was allowed as a dynamic modification. The false discovery rate was estimated using the Percolator algorithm and set to 5%. Peptide lengths were limited to 8-12 amino acids for HLA class I and 12-25 amino acids for HLA class II. Protein inference was disabled, allowing for multiple protein annotations of peptides. HLA annotation was performed using SYFPEITHI [46] or an extended in-house database. Experimental validation of peptide identifications and HLA annotations was performed by mass spectrometric and functional characterization of synthetic peptides for a subset of peptides.
# The inventors quantitatively assessed HLA class I ligand presentation during proteasome inhibitor therapy. Observed was a considerable plasticity of the HLA class I ligandome after treatment with carfilzomib with 17.9±1.1% of MM.1S ligands and 11.2±0.7% of U266 ligands (mean of three biological replicates ±s.d.) showing significant modulation (fold-change ≥4, Po0.01 after Benjamini-Hochberg correction) at t24 h compared with mock-treated controls. Briefly, Cultured MCLs (MM.1S and U266) and primary myeloma samples were incubated with carfilzomib (100 nM, Kyprolis®, available, e.g., from Onyx Pharmaceuticals, Inc.) as an example for a proteasome inhibitor for a 1-h period, followed by three washes in PBS (Gibco) and recultured for additional 24 or 48 h. Controls were incubated with vehicle control (glucose 5%) for 1 h, followed by identical washing and incubation for 24 or 48 h. Experiments were conducted in three biological replicates where indicated.
# U266 cells = test: HLA class I ligand presentation upon carfilzomib treatment on U266 cells (LC-MS/MS); design: key to modulation upon carfilzomib-treatment 24 #1 / modulation upon carfilzomib-treatment 24 #2 / modulation upon carfilzomib-treatment 24 #3 / modulation upon carfilzomib-treatment 48 #1 / modulation upon carfilzomib-treatment 48 #2 / modulation upon carfilzomib-treatment 48 #3: −1: significantly down-modulated; 0: not signifcant/not detected; 1: significantly up-modulated; details: U266 cells, vs mock-treated controls; for modulation upon carfilzomib-treatment 24 #1 / modulation upon carfilzomib-treatment 24 #2 / modulation upon carfilzomib-treatment 24 #3: 24 h after carfilzomib treatment (100 nM, 1 h); for modulation upon carfilzomib-treatment 24 #1 / modulation upon carfilzomib-treatment 48 #1: biological replicate #1; for modulation upon carfilzomib-treatment 24 #2 / modulation upon carfilzomib-treatment 48 #2: biological replicate #2; for modulation upon carfilzomib-treatment 24 #3 / modulation upon carfilzomib-treatment 48 #3: biological replicate #3; for modulation upon carfilzomib-treatment 48 #1 / modulation upon carfilzomib-treatment 48 #2 / modulation upon carfilzomib-treatment 48 #3: 48 h after carfilzomib treatment (100 nM, 1 h)
# Method in brief: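 MM.1S and U266 myeloma cells were pulsed with 100 nM carfilzomib for 1 h, washed and recultured 24 or 48 h; controls got 5% glucose vehicle. HLA class I ligands were immunopurified with W6/32 and analysed by nanoLC-MS/MS (CID, 5 technical replicates, 5% FDR, 8-12-mers). Modulation versus mock was scored as fold-change ≥4 with Benjamini-Hochberg-corrected significance.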
Sequence,"memory T-cell responses, MM patients positive/tested ([1]; IFNγ ELISPOT, HLA class II peptide, MM patients)","specific T-cell recognition, MM patients positive/tested [1]","specific T-cell recognition, share of MM patients [1] [%]","P2-tetramer positive CD8+ T cells after in vitro priming ([2]; HV-derived CD8+ T cells, 3 cycles of aAPC priming) [%]","tetramer-positive T-cell populations ex vivo ([2]; ex vivo, without priming) [%]",P2-tetramer positive CD8+ T cells after priming [3] [%],modulation upon carfilzomib-treatment 24 #1 (MM.1S cells),modulation upon carfilzomib-treatment 24 #2 (MM.1S cells),modulation upon carfilzomib-treatment 24 #3 (MM.1S cells),modulation upon carfilzomib-treatment 48 #1 (MM.1S cells),modulation upon carfilzomib-treatment 48 #2 (MM.1S cells),modulation upon carfilzomib-treatment 48 #3 (MM.1S cells),modulation upon carfilzomib-treatment 24 #1 (U266 cells),modulation upon carfilzomib-treatment 24 #2 (U266 cells),modulation upon carfilzomib-treatment 24 #3 (U266 cells),modulation upon carfilzomib-treatment 48 #1 (U266 cells),modulation upon carfilzomib-treatment 48 #2 (U266 cells),modulation upon carfilzomib-treatment 48 #3 (U266 cells)
NSVIIVDKNGRLV (listed as Homo sapiens) [SEQ ID NO: 237],2/5,,,,,,,,,,,,,,,,,
SLLEQGLVEA (listed as Homo sapiens) [SEQ ID NO: 177],,1/8,13,0.403,≤ 0.1,0.236,,,,,,,,,,,,
FAYPAIRYL,,,,,,,0,0,0,0,0,0,0,0,0,1,0,1
KAMEAASSL (listed as Homo sapiens) [SEQ ID NO: 82],,2/16,13,,,,,,,,,,,,,,,
TPAVGRLEV,,,,,,,0,0,0,0,0,0,0,0,0,0,0,0
